The values that follow come from patent publication US20200325156A1, “HETEROARYL AMIDE COMPOUNDS, PREPARATION METHOD THEREFOR, PHARMACEUTICAL COMPOSITIONS THEREOF, AND APPLICATIONS THEREOF” (Rui Jin Hospital Affiliated to Shanghai Jiao Tong …, priority 2017, published 2020).

Common to all, as to type: cell-based
Assay [1] concerns human liver cancer cells HepG-2. Put plainly: MTS cell growth inhibition, HepG-2. To be noted: HepG2, compound concentration 10 μM, 48 h, read-out: Inhibition rate against HepG-2 at 10 μM (%). The protocol:
(§1) 1) Medium: DMEM (Dulbecco's modified eagle medium) or RPMI1640 (containing 10% fetal bovine serum, 100 μg/mL ampicillin, 100 μg/mL streptomycin).
(§2) 2) Reagent: MTS reaction solution (containing 2 mg/mL of MTS (3-(4,5-dimethylthiazol-2-yl)-5-(3-carboxymethoxyphenyl)-2-(4-sulfophenyl)-2H-tetrazolium, inner salt); 100 μg/mL PES ([…])).
(§3) Human promyelocytic leukemia cells HL-60 (2×10^4 cells/well) cultured in vitro were incubated into a 96-well culture plate, the volume of cell-culture medium was 90 μL, and then 10 μL of the compound at each gradient concentration was added (the highest concentration was 10 μM, which was diluted stepwise by ⅓, and 8 concentration points were set in total; the system contained 0.1% DMSO (dimethyl sulfoxide)). The cell plate with uniformly mixed compound was cultured in a cell culture incubator (37° C.; 5% CO2) for 48 h, then 20 μμL of MTS reaction solution was added, uniformly mixed and incubated in the cell culture incubator (37° C.; 5% CO2) for 1-4 hr; OD values at 490 nm were measured by a microplate reader (VARIOSKAN FLASH, Thermo). Three parallels were set in each group of experiments, with 0.1% (a final concentration) DMSO as a negative control, and a medium without cells and compounds as a blank control. The cell growth inhibition rate was calculated by the following formula:
(§4) Cell growth inhibition rate%=1−(ODexperimental group−ODblank group)/(ODnegative group−ODblank group)×100%
(§5) 4) IC50 calculation: The semi-inhibitory concentration of the compound acting on cell was calculated using GradPad Prism 5 software according to the measured cell growth inhibition rate.
(§6) Human lung cancer cells A549, human gastric cancer cells BGC-823, human liver cancer cells HepG-2 and human breast cancer cells MCF-7, human osteosarcoma cells U2OS, human prostate cancer cells LNCAP cultured in vitro were added in a 96-well culture plate at 1,000-10,000 cells/well, incubated until adherence, and then the compound was added. As to other procedures, please refer to the method (1) above.

The subject of assay [2] is human gastric cancer cells BGC-823. Put plainly: MTS cell growth inhibition, BGC-823. Particulars: compound concentration 10 μM, 48 h, read-out: Inhibition rate against BGC-823 at 10 μM (%). Here is the method:
as §1, §2, §3, §4, §5, §6

For the next assay, the system named is leukemia cell line THP-1. The assay can be described thus: Growth inhibitory activity, THP-1. To be noted: Homo sapiens, growth inhibition, read-out: Leukemia cells IC50 THP-1.
The subject of assay [3] is normal human embryo lung cells (WI-38 and HFL-1). Put plainly: Growth of normal human embryo lung cells (summary).
Assay [4] has as its system lung cancer cell line NCI-1975. The assay can be described thus: Growth inhibitory activity, NCI-1975. Particulars: growth inhibition; read-out: Lung cancer cells IC50 NCI-1975.
Assay [5] concerns lung cancer cell line HCC827. The assay can be described thus: Growth inhibitory activity, HCC827. To be noted: Homo sapiens, growth inhibition, read-out: Lung cancer cells IC50 HCC827.
The subject of assay [6] is human prostate cancer cells LNCAP. The assay can be described thus: MTS cell growth inhibition, LNCAP. To be noted: Homo sapiens, LNCaP, 48 h, MTS; for inhibition at 10 µM: compound concentration 10 μM, read-out: Inhibition rate against LNCAP at 10 μM (%); for IC50: growth inhibition. Here is the method:
as §1, §2, §3, §4, §5, §6

The subject of assay [7] is human embryo lung cell line WI-38. The assay can be described thus: Growth inhibitory activity, WI-38. To be noted: growth inhibition, normal cells.
The subject of assay [8] is Human promyelocytic leukemia cells HL-60. The assay can be described thus: MTS cell growth inhibition, HL-60. To be noted: Homo sapiens, HL-60, 48 h, MTS; for inhibition at 10 µM: compound concentration 10 μM, read-out: Inhibition rate against HL-60 at 10 μM (%); for IC50: growth inhibition. The protocol: as §1, §2, §3, §4, §5
The test system of assay [9] is Human lung cancer cells A549. The assay can be described thus: MTS cell growth inhibition, A549. To be noted: for inhibition at 10 µM: compound concentration 10 μM, 48 h, MTS, read-out: Inhibition rate against A549 at 10 μM (%). The protocol:
as §1, §2, §3, §4, §5, §6

Assay [10] concerns human breast cancer cells MCF-7. The assay can be described thus: MTS cell growth inhibition, MCF-7. To be noted: MCF7, compound concentration 10 μM, 48 h, read-out: Inhibition rate against MCF-7 at 10 μM (%). Here is the method:
as §1, §2, §3, §4, §5, §6

For assay [11], the system named is human osteosarcoma cells U2OS. Put plainly: MTS cell growth inhibition, U2OS. Particulars: Homo sapiens, U2OS, 48 h, MTS; for inhibition at 10 µM: compound concentration 10 μM, read-out: Inhibition rate against U2OS at 10 μM (%); for IC50: growth inhibition. The protocol:
as §1, §2, §3, §4, §5, §6

For a further assay, the system named is leukemia cell line SHI-1. The assay can be described thus: Growth inhibitory activity, SHI-1. Particulars: growth inhibition; read-out: Leukemia cells IC50 SHI-1.
Assay [12] relates to tumor cells (NCI-1975, HCC827, A549, SHI-1, THP-1, NB-4). The assay can be described thus: Growth inhibition of tumor cells (summary over cell lines). Particulars: range over lung cancer and leukemia cell lines. Here is the method: as §1, §2
as §3, with “Three parallels were set in each group of experiments, with 0.1% (a final concentration) DMSO as a negative control, and a medium without cells and compounds as a blank control.” left out, “formula: […]” for “formula:”
4) IC50 calculation: The semi-inhibitory concentration of the compound acting on cell was calculated using GradPad Prism 5 software according to the measured cell growth inhibition rate. […]

A further assay relates to leukemia cell line NB-4. The assay can be described thus: Growth inhibitory activity, NB4. To be noted: growth inhibition; read-out: Leukemia cells IC50 NB4.
Assay [13] concerns human embryo lung cell line HFL-1. The assay can be described thus: Growth inhibitory activity, HFL-1. Particulars: HFL1, growth inhibition, normal cells.

As a reminder, the inhibition is the change of the read-out against control, counted positive when it falls. What is called IC50 is the concentration that inhibits the measured activity by half.

For `CC(C)Oc1ccc(NC(=O)c2cc3scnc3[nH]2)cc1` [Compound I-2], the inhibition at 10 µM in [1] was 60.1%; in assay [2] it was 61.7%; in assay [6] it was 22.2%; in [8], less than 0%; in assay [9], 81.9%; in assay [10], 23.1%. Further, the inhibition at 10 µM in assay [11] was found to be 19.4%. For the same compound, the IC50 was 2460 nM in the assay with leukemia cell line THP-1; greater than 5000 nM in [3]; 57 nM in assay [4]; 8 nM in assay [5]; 5620 nM in assay [7]; 30 nM in assay [9] (growth inhibition). For the same compound, the IC50 with leukemia cell line SHI-1 is 221 nM; in [12] it was 8 to 280 nM; with leukemia cell line NB-4, 280 nM; in assay [13] it was 8590 nM.

In the case of `CS(=O)(=O)c1ccc(OCc2cccc(NC(=O)c3cc4scnc4[nH]3)c2)cc1` [Compound I-32], the inhibition at 10 µM is less than 0% in [1]; 9.2% in assay [2]; 41.5% in [6]; 70.3% in [8]; less than 0% in assay [9]; less than 0% in [10]. Besides, the inhibition at 10 µM in assay [11] stood at 45.2%. The 50% inhibitory concentration (IC50) was 7030 nM in assay [6], 1850 nM in assay [8] and 5470 nM in assay [11].

On to `Cc1cn(-c2cc(NC(=O)c3cc4scnc4[nH]3)cc(C(F)(F)F)c2)cn1` [Compound I-35], for which the inhibition at 10 µM was 50.5% in [1]; 44.4% in assay [2]; 61.9% in assay [6]; 80.4% in assay [8]; 59.5% in assay [9]; less than 0% in [10]. The inhibition at 10 µM in assay [11] was found to be 42.2%. Moreover, the half-maximal inhibitory concentration (IC50) in assay [6] was 4740 nM; in assay [8], 7030 nM; in assay [11] it was 7850 nM.
